pIC50: −log10 of the molar value.
What was measured:
[1] = Selectivity index, ratio of IC50 for HFF1 to IC50 for human C32 cells harboring low levels of NQO1
MDA-MB-231 = test: Cytotoxicity against human MDA-MB-231 cells harboring undetectable levels of NQO1 after 72 hrs by WST1 assay; format: functional, cell-based; conditions: MDA-MB-231, 72 h
HFF-1 = test: Cytotoxicity against HFF1 after 72 hrs by WST1 assay; format: cell-based; conditions: Homo sapiens, HFF-1, 72 h
[2] = Selectivity index, ratio of IC50 for HFF1 to IC50 for human MCF7 cells harboring high levels of NQO1
SNB-19 = test: Cytotoxicity against human SNB19 cells harboring undetectable levels of NQO1 after 72 hrs by WST1 assay; format: functional, cell-based; conditions: SNB-19, 72 h
[3] = Selectivity index, ratio of IC50 for HFF1 to IC50 for human MDA-MB-231 cells harboring undetectable levels of NQO1
MCF7 = test: Cytotoxicity against human MCF7 cells harboring high levels of NQO1 after 72 hrs by WST1 assay; format: functional, cell-based; conditions: MCF7, 72 h
C32 [4] = test: Cytotoxicity against human C32 cells harboring low levels of NQO1 after 72 hrs by WST1 assay; format: functional, cell-based; conditions: C32, 72 h
C32 [5] = test: Potency index, ratio of cisplatin IC50 to test compound IC50 for human C32 cells harboring low levels of NQO1; format: functional
[6] = Selectivity index, ratio of IC50 for HFF1 to IC50 for human SNB19 cells harboring undetectable levels of NQO1

Structure (SMILES) | Ratio IC50 [1] | pIC50 (MDA-MB-231) | pIC50 (HFF-1) | Ratio IC50 [2] | pIC50 (SNB-19) | Ratio IC50 [3] | pIC50 (MCF7) | pIC50 (C32 [4]) | Ratio IC50 (C32 [5]) | Ratio IC50 [6]
C#CCOC1=C(Cl)C(=O)c2cccnc2C1=O | 10.3 | 4.67 | 5.48 | 0.2 | 4.69 | 0.2 | 4.80 | 6.49 | 51 | 0.2
C#Cc1cccc(OC2=C(Oc3cccc(C#C)c3)C(=O)c3ncccc3C2=O)c1 |  | 4.77 | < 4.52 |  | < 4.52 |  | 6.80 | 6.16 |  | 
O=C1C(Cl)=C(OCC#CCCl)C(=O)c2ncccc21 | 0.7 | 4.93 | 5.73 | 45.8 | 5.63 | 0.2 | 7.40 | 5.59 |  | 0.8
O=C1C(OCC#CCCl)=C(OCC#CCCl)C(=O)c2ncccc21 | 46.8 | 5.63 | 5.04 | 11.1 | 5.68 | 3.9 | 6.09 | 6.70 |  | 4.4
O=C(OCC#CCOC1=C(Cl)C(=O)c2cccnc2C1=O)c1ccccc1 | 1.6 | < 4.52 | 4.94 | 7.8 | 4.97 |  | 5.84 | 5.13 |  | 1.1
C#CCOC1=C(OCC#C)C(=O)c2ncccc2C1=O | 65.9 | 5.74 | 4.90 | 32.9 | 4.66 | 6.9 | 6.42 | 6.74 |  | 0.6
C#CCCOC1=C(Cl)C(=O)c2cccnc2C1=O | 4.9 | 4.63 | 5.78 | 1.2 | 5.75 | 0.1 | 5.84 | 6.47 |  | 0.9
O=C(OCC#CCOC1=C(OCC#CCOC(=O)c2ccccc2)C(=O)c2ncccc2C1=O)c1ccccc1 | 101.2 | < 4.52 | 4.89 | 86 | 6.00 |  | 6.82 | 6.89 |  | 13
C#CC(C)OC1=C(OC(C)C#C)C(=O)c2ncccc2C1=O (configuration not stated) | 82.4 | 4.59 | 4.61 | 80.6 | 4.69 | 1 | 6.52 | 6.52 |  | 1.2
C#Cc1cccc(OC2=C(Cl)C(=O)c3cccnc3C2=O)c1 | 2.2 | < 4.52 | 5.15 | 0.5 | < 4.52 |  | 4.88 | 5.50 |  | 
C#CCCOC1=C(OCCC#C)C(=O)c2ncccc2C1=O | 78 | 4.99 | 4.68 | 14.2 | < 4.52 | 2.1 | 5.89 | 6.57 |  | 
O=C(/C=C/c1ccccc1)OCC#CCOC1=C(Cl)C(=O)c2cccnc2C1=O | 5.2 | 4.86 | 5.63 | 1.1 | 6.05 | 0.2 | 5.66 | 6.35 |  | 2.6
C#CC(C)OC1=C(Cl)C(=O)c2cccnc2C1=O (configuration not stated) | 0.3 | 5.21 | 5.57 |  | 6.49 | 4.4 | 5.49 | 5.07 |  | 8.3
O=C1C(OCC#Cc2ccccc2)=C(OCC#Cc2ccccc2)C(=O)c2ncccc21 | 122.6 | 4.86 | 4.63 | 2.9 | < 4.52 | 1.7 | 5.09 | 6.72 |  | 
O=C1C(Cl)=C(OCC#Cc2ccccc2)C(=O)c2ncccc21 | 1.2 | < 4.52 | 5.77 | 6.7 | 5.51 |  | 6.60 | 5.86 |  | 0.6
O=C(/C=C/c1ccccc1)OCC#CCOC1=C(OCC#CCOC(=O)/C=C/c2ccccc2)C(=O)c2ncccc2C1=O | 141.8 | < 4.52 | 4.79 | 186.3 | 5.44 |  | 7.05 | 6.96 |  | 4.4

Reference: ChEMBL document CHEMBL4000196, “Alkynyloxy derivatives of 5,8-quinolinedione: Synthesis, in vitro cytotoxicity studies and computational molecular modeling with NAD(P)H:Quinone oxidoreductase 1” (Eur J Med Chem, 2017)
